Tests used:
[1] = system: cortical bone of the humerus; assay: Histomorphometry and polarized Fourier transform infrared microscopy of humerus cortical bone; type: in vivo, Macaca fascicularis
Method: For certain experimental subjects, cortical bone of the humerus was examined by histomorphometry and by polarized Fourier transform infrared microscopy. The Fourier transform infrared microscopy was conducted by an adaptation of known methods for such microscopy.

post-menopausal women [2] = assay: Clinical trial: number and severity of vertebral fractures (spine x-ray); type: in vivo, Humans
post-menopausal women [3] = assay: Clinical trial: number of non-vertebral fractures; type: in vivo, Humans
[4] = cynomolgus monkey, in vivo
Method: Serum and urinary samples were taken 24 hours after vehicle or rhPTH(1-34) injection at 3-month intervals. A sparse sampling design of 5 monkeys in each rhPTH(1-34)-treated group was used for pharmacokinetics, with sampling (spanning 0 to 240 minutes each time) at baseline, 7, 11, and 17 months.

[5] = 20 µg/day PTH compared to placebo
[6] = 40 µg/day PTH compared to placebo
[7] = all PTH treated patients compared with placebo

Substance: teriparatide [rhPTH(1-34)]
- bone quality (crystallites) [1]: improved bone quality by replacing old bone (large crystallites) with young bone
- Number of patients with 2 or more new vertebral fractures (post-menopausal women [2]; 20 µg/day PTH (n=444)): 5
- Number of patients with new moderate to severe fractures (post-menopausal women [2]; 20 µg/day PTH (n=444)): 4
- Number of patients with new vertebral fractures (post-menopausal women [2]; 20 µg/day PTH (n=444)): 22
- percentage of patients with 2 or more new vertebral fractures (post-menopausal women [2]; 20 µg/day PTH (n=444)): (1.1%)
- percentage of patients with new moderate to severe fractures (post-menopausal women [2]; 20 µg/day PTH (n=444)): (0.9%)
- percentage of patients with new vertebral fractures (post-menopausal women [2]; 20 µg/day PTH (n=444)): (5.0%)
- reduction in number of patients with moderate to severe vertebral fractures (post-menopausal women [2]; [5]): 90%
- reduction in number of patients with multiple vertebral fractures (post-menopausal women [2]; [5]): 77%
- reduction in number of patients with vertebral fractures (post-menopausal women [2]; [5]): 65%
- Number of patients with 2 or more new vertebral fractures (post-menopausal women [2]; 40 µg/day PTH (n=434)): 3
- Number of patients with new moderate to severe fractures (post-menopausal women [2]; 40 µg/day PTH (n=434)): 9
- Number of patients with new vertebral fractures (post-menopausal women [2]; 40 µg/day PTH (n=434)): 19
- percentage of patients with 2 or more new vertebral fractures (post-menopausal women [2]; 40 µg/day PTH (n=434)): (0.7%)
- percentage of patients with new moderate to severe fractures (post-menopausal women [2]; 40 µg/day PTH (n=434)): (2.1%)
- percentage of patients with new vertebral fractures (post-menopausal women [2]; 40 µg/day PTH (n=434)): (4.4%)
- reduction in number of patients with moderate to severe vertebral fractures (post-menopausal women [2]; [6]): 78%
- reduction in number of patients with multiple vertebral fractures (post-menopausal women [2]; [6]): 86%
- reduction in number of patients with vertebral fractures (post-menopausal women [2]; [6]): 69%
- reduction in number of patients with moderate to severe vertebral fractures (post-menopausal women [2]; [7]): 84%
- reduction in number of patients with multiple vertebral fractures (post-menopausal women [2]; [7]): 81%
- reduction in number of patients with vertebral fractures (post-menopausal women [2]; [7]): 67%
- reduction in the number of patients with moderate or severe fractures (post-menopausal women [2]; summary): 78%
- reduction of the number of patients with prior vertebral fractures who suffered new vertebral fractures (post-menopausal women [2]; summary): more than 66%
- reduction of the number of patients with prior vertebral fractures who suffered new, multiple vertebral fractures (post-menopausal women [2]; summary): more than 78%
- number of non-vertebral fractures, Ankle (post-menopausal women [3]; PTH-20 (N=541)): 2
- number of non-vertebral fractures, Foot (post-menopausal women [3]; PTH-20 (N=541)): 1
- number of non-vertebral fractures, Hip (post-menopausal women [3]; PTH-20 (N=541)): 2
- number of non-vertebral fractures, Humerus (post-menopausal women [3]; PTH-20 (N=541)): 4
- number of non-vertebral fractures, Other (post-menopausal women [3]; PTH-20 (N=541)): 14
- number of non-vertebral fractures, Pelvis (post-menopausal women [3]; PTH-20 (N=541)): 1
- number of non-vertebral fractures, Radius (post-menopausal women [3]; PTH-20 (N=541)): 7
- number of non-vertebral fractures, Ribs (post-menopausal women [3]; PTH-20 (N=541)): 5
- number of non-vertebral fractures, Total (post-menopausal women [3]; PTH-20 (N=541)): 34
- number of non-vertebral fractures, Total w/o "Other" (post-menopausal women [3]; PTH-20 (N=541)): 21
- number of non-vertebral fractures, Ankle (post-menopausal women [3]; PTH-40 (N=552)): 2
- number of non-vertebral fractures, Foot (post-menopausal women [3]; PTH-40 (N=552)): 4
- number of non-vertebral fractures, Hip (post-menopausal women [3]; PTH-40 (N=552)): 3
- number of non-vertebral fractures, Humerus (post-menopausal women [3]; PTH-40 (N=552)): 3
- number of non-vertebral fractures, Other (post-menopausal women [3]; PTH-40 (N=552)): 9
- number of non-vertebral fractures, Pelvis (post-menopausal women [3]; PTH-40 (N=552)): 0
- number of non-vertebral fractures, Radius (post-menopausal women [3]; PTH-40 (N=552)): 10
- number of non-vertebral fractures, Ribs (post-menopausal women [3]; PTH-40 (N=552)): 5
- number of non-vertebral fractures, Total (post-menopausal women [3]; PTH-40 (N=552)): 32
- number of non-vertebral fractures, Total w/o "Other" (post-menopausal women [3]; PTH-40 (N=552)): 24
- pharmacokinetic measures [4]: did not change with time
